Experimental findings from US20190161499A1, “PESTICIDALLY ACTIVE 1,2,4-TRIAZOLE DERIVATIVES” (SYNGENTA PARTICIPATIONS AG, priority 2015, published 2019) are described below.

Common to all, as to assay type: in vivo
Assay [1] concerns Spodoptera littoralis (Egyptian Cotton Leaf Worm). The experiment in a line: Spodoptera littoralis cotton leaf disc spray test. As to conditions: foliar, 72 h, application rate 200 ppm, L1 larvae, 3 days after infestation, read-out: control (at least one of mortality, anti-feedant effect, growth inhibition). The method, then: Spodoptera littoralis (Egyptian Cotton Leaf Worm)
Cotton leaf discs were placed on agar in 24-well microtiter plates and sprayed with aqueous test solutions prepared from 10,000 ppm DMSO stock solutions. After drying, the leaf discs were infested with five L1 larvae. The samples were assessed for mortality, anti-feedant effect, and growth inhibition in comparison to untreated samples 3 days after infestation. Control of Spodoptera littoralis by a test sample is when at least one of mortality, anti-feedant effect, and growth inhibition is higher than the untreated sample.

Assay [2] has as its system Plutella xylostella (Diamond Back Moth). As to the kind of experiment: whole plant or invertebrate. To be noted: 120 h, application rate 200 ppm, L2 larvae, 5 days after infestation, read-out: effect in at least one of the two categories (mortality or growth inhibition). The method, then: Example B2: Plutella xylostella (Diamond Back Moth)
24-well microtiter plates with artificial diet were treated with aqueous test solutions prepared from 10,000 ppm DMSO stock solutions by pipetting. After drying, the plates were infested with L2 larvae (10 to 15 per well). The samples were assessed for mortality and growth inhibition in comparison to untreated samples 5 days after infestation.

For assay [3], the system named is Diabrotica Balteata (Corn Root Worm). The experiment in a line: whole plant or invertebrate. As to conditions: 96 h, application rate 200 ppm, L2 larvae, 4 days after infestation, read-out: effect in at least one of the two categories (mortality or growth inhibition). The method, then:
Example B3: Diabrotica Balteata (Corn Root Worm)
Maize sprouts, placed on an agar layer in 24-well microtiter plates were treated with aqueous test solutions prepared from 10,000 ppm DMSO stock solutions by spraying. After drying, the plates were infested with L2 larvae (6 to 10 per well). The samples were assessed for mortality and growth inhibition in comparison to untreated samples 4 days after infestation.

Regarding `Fc1ccccc1-n1nc(-c2ccc(Cl)cc2)nc1CN1CCC(c2ncccn2)CC1` [Example 1.1, 2-[1-[[5-(4-chlorophenyl)-2-(2-fluorophenyl)-1,2,4-triazol-3-yl]methyl]-4-piperidyl]pyrimidine], the percent control (mortality, anti-feedant effect or growth inhibition) at 200 ppm in assay [1] was no less than 80%. In addition, the percent effect (mortality or growth inhibition) at 200 ppm in assay [2] and in assay [3] was no less than 80% throughout.
For `Fc1ccccc1-n1nc(-c2ccc(Cl)cn2)nc1CN1CCC(c2ncccn2)CC1` [Example 1.4], the percent control (mortality, anti-feedant effect or growth inhibition) at 200 ppm in assay [1] was no less than 80%. Besides, the percent effect (mortality or growth inhibition) at 200 ppm in assay [2] and in assay [3] was no less than 80% in each case.
Take `Fc1ccccc1-n1nc(-c2ccc(Cl)c(Cl)c2)nc1CN1CCC(c2ncccn2)CC1` [Example 1.20]: the percent control (mortality, anti-feedant effect or growth inhibition) at 200 ppm in assay [1] is no less than 80%. Also, the percent effect (mortality or growth inhibition) at 200 ppm in assay [2] and in assay [3] was no less than 80% in each case.
As to `Fc1cccc(F)c1-n1nc(-c2ccc(C(F)(F)F)cc2)nc1CN1CCC(c2ncccn2)CC1` [Example 1.21], the percent control (mortality, anti-feedant effect or growth inhibition) at 200 ppm in assay [1] was no less than 80%. The percent effect (mortality or growth inhibition) at 200 ppm in assay [2] and in assay [3] was no less than 80% in each case.
Regarding `Fc1ccccc1-n1nc(-c2ccc(C(F)(F)F)cc2)nc1CN1CCC(c2ncccn2)CC1` [Example 1.26], the percent control (mortality, anti-feedant effect or growth inhibition) at 200 ppm in assay [1] was no less than 80%. Also, the percent effect (mortality or growth inhibition) at 200 ppm in assay [2] and in assay [3] was no less than 80% in each case.
`Fc1ccc(-c2nc(CN3CCC(c4ncccn4)CC3)n(-c3ccc(F)cc3)n2)cc1` [Example 1.29]: the percent control (mortality, anti-feedant effect or growth inhibition) at 200 ppm in assay [1] is no less than 80%. For the same compound, the percent effect (mortality or growth inhibition) at 200 ppm in assay [2] and in assay [3] was no less than 80% throughout.
In the case of `Fc1ccc(-n2nc(-c3ccc(Cl)cc3)nc2CN2CCC(c3ncccn3)CC2)c(F)c1` [Example 1.30], in assay [1], the percent control (mortality, anti-feedant effect or growth inhibition) at 200 ppm was no less than 80%. For the same compound, the percent effect (mortality or growth inhibition) at 200 ppm in assay [2] and in assay [3] was no less than 80% each time.
Regarding `CC1(C)CCN(Cc2nc(-c3ccc(Cl)cc3)nn2-c2ccccc2F)CC1` [Example 1.35], the percent control (mortality, anti-feedant effect or growth inhibition) at 200 ppm in assay [1] was no less than 80%. Further, the percent effect (mortality or growth inhibition) at 200 ppm in assay [2] and in assay [3] was no less than 80% in each case.
With `Fc1ccccc1-n1nc(-c2cccc(C(F)(F)F)c2)nc1CN1CCC(c2ncccn2)CC1` [Example 1.38], the percent control (mortality, anti-feedant effect or growth inhibition) at 200 ppm in assay [1] was no less than 80%. For the same compound, the percent effect (mortality or growth inhibition) at 200 ppm in assay [2] and in assay [3] was no less than 80% in each case.
`Fc1ccccc1-n1nc(-c2ccc(Cl)cc2)nc1CN1CCC(c2ccccc2)CC1` [Example 1.43]: the percent control (mortality, anti-feedant effect or growth inhibition) at 200 ppm in assay [1] is no less than 80%. In addition, the percent effect (mortality or growth inhibition) at 200 ppm in assay [2] and in assay [3] was no less than 80% throughout.
As to `CC1CCN(Cc2nc(-c3ccc(Cl)cc3)nn2-c2ccccc2F)CC1` [Example 1.46], in assay [1], the percent control (mortality, anti-feedant effect or growth inhibition) at 200 ppm is no less than 80%. The percent effect (mortality or growth inhibition) at 200 ppm in assay [2] and in assay [3] was no less than 80% each time.
For `Clc1ccc(-c2nc(CN3CCC(c4ncccn4)CC3)n(-c3cccc(Cl)c3Cl)n2)cc1` [Example 1.55], the percent control (mortality, anti-feedant effect or growth inhibition) at 200 ppm in assay [1] is no less than 80%. Besides, the percent effect (mortality or growth inhibition) at 200 ppm in assay [2] and in assay [3] was no less than 80% in each case.
Take `Clc1ccc(-c2nc(CN3CCC(c4ncccn4)CC3)n(Cc3ccccc3)n2)cc1` [Example 1.56]: in assay [1], the percent control (mortality, anti-feedant effect or growth inhibition) at 200 ppm was no less than 80%. Moreover, the percent effect (mortality or growth inhibition) at 200 ppm in assay [2] and in assay [3] was no less than 80% each time.
`Clc1ccc(-c2nc(CN3CCC(c4ncccn4)CC3)n(-c3ccccc3)n2)cc1` [Example 1.61]: the percent control (mortality, anti-feedant effect or growth inhibition) at 200 ppm in assay [1] is no less than 80%. The percent effect (mortality or growth inhibition) at 200 ppm in assay [2] and in assay [3] was no less than 80% throughout.
Take `Cc1ccccc1-n1nc(-c2ccc(Cl)cc2)nc1CN1CCC(c2ncccn2)CC1` [Example 1.62]: the percent control (mortality, anti-feedant effect or growth inhibition) at 200 ppm in assay [1] is no less than 80%. The percent effect (mortality or growth inhibition) at 200 ppm in assay [2] and in assay [3] was no less than 80% each time.
On to `Clc1ccc(-c2nc(CN3CCC(c4ncccn4)CC3)n(-c3ccc(Cl)cc3)n2)cc1` [Example 1.66], for which the percent control (mortality, anti-feedant effect or growth inhibition) at 200 ppm in assay [1] is no less than 80%. For the same compound, the percent effect (mortality or growth inhibition) at 200 ppm in assay [2] and in assay [3] was no less than 80% throughout.
Consider `COc1ccccc1-n1nc(-c2ccc(Cl)cc2)nc1CN1CCC(c2ncccn2)CC1` [Example 1.70], for which the percent control (mortality, anti-feedant effect or growth inhibition) at 200 ppm in assay [1] was no less than 80%. The percent effect (mortality or growth inhibition) at 200 ppm in assay [2] and in assay [3] was no less than 80% each time.
Consider `Clc1ccc(-c2nc(CN3CCC(c4ncccn4)CC3)n(-c3ccc(Br)cc3)n2)cc1` [Example 1.76], for which the percent control (mortality, anti-feedant effect or growth inhibition) at 200 ppm in assay [1] was no less than 80%. Further, the percent effect (mortality or growth inhibition) at 200 ppm in assay [2] and in assay [3] was no less than 80% in each case.
`Clc1ccc(-c2nc(CN3CCC(c4ncccn4)CC3)n(-c3c(Cl)cc(Cl)cc3Cl)n2)cc1` [Example 1.77]: in assay [1], the percent control (mortality, anti-feedant effect or growth inhibition) at 200 ppm was no less than 80%. In addition, the percent effect (mortality or growth inhibition) at 200 ppm in assay [2] and in assay [3] was no less than 80% throughout.
With `Clc1ccc(-c2nc(CN3CCC(c4ncccn4)CC3)n(-c3ccccn3)n2)cc1` [Example 1.78], the percent control (mortality, anti-feedant effect or growth inhibition) at 200 ppm in assay [1] is no less than 80%. In addition, the percent effect (mortality or growth inhibition) at 200 ppm in assay [2] and in assay [3] was no less than 80% in each case.
With `Fc1cccc(-n2nc(-c3ccc(Cl)cc3)nc2CN2CCC(c3ncccn3)CC2)c1` [Example 1.80], the percent control (mortality, anti-feedant effect or growth inhibition) at 200 ppm in assay [1] is no less than 80%. The percent effect (mortality or growth inhibition) at 200 ppm in assay [2] and in assay [3] was no less than 80% throughout.
For the compound `Clc1ccc(-c2nc(CN3CCC(c4ncccn4)CC3)n(-c3ccccc3Cl)n2)cc1` [Example 1.83], the percent control (mortality, anti-feedant effect or growth inhibition) at 200 ppm in assay [1] is no less than 80%. The percent effect (mortality or growth inhibition) at 200 ppm in assay [2] and in assay [3] was no less than 80% in each case.
`Cc1c(Cl)cccc1-n1nc(-c2ccc(Cl)cc2)nc1CN1CCC(c2ncccn2)CC1` [Example 1.84]: the percent control (mortality, anti-feedant effect or growth inhibition) at 200 ppm in assay [1] is no less than 80%. The percent effect (mortality or growth inhibition) at 200 ppm in assay [2] and in assay [3] was no less than 80% throughout.
Take `Cc1cc(Cl)ccc1-n1nc(-c2ccc(Cl)cc2)nc1CN1CCC(c2ncccn2)CC1` [Example 1.85]: in assay [1], the percent control (mortality, anti-feedant effect or growth inhibition) at 200 ppm is no less than 80%. The percent effect (mortality or growth inhibition) at 200 ppm in assay [2] and in assay [3] was no less than 80% in each case.
Take `Cc1nccc(C2CCN(Cc3nc(-c4ccc(Cl)cc4)nn3-c3ccccc3F)CC2)n1` [Example 1.110]: in assay [1], the percent control (mortality, anti-feedant effect or growth inhibition) at 200 ppm was no less than 80%. In addition, the percent effect (mortality or growth inhibition) at 200 ppm in assay [2] and in assay [3] was no less than 80% throughout.
Take `Fc1ccccc1-n1nc(-c2ccc(Cl)cc2)nc1CN1CCC(c2ccon2)CC1` [Example 1.120]: in assay [1], the percent control (mortality, anti-feedant effect or growth inhibition) at 200 ppm is no less than 80%. Also, the percent effect (mortality or growth inhibition) at 200 ppm in assay [2] and in assay [3] was no less than 80% throughout.
As to `Fc1ccc(C2CCN(Cc3nc(-c4ccc(Cl)cc4)nn3-c3ccccc3F)CC2)nc1` [Example 1.122], the percent control (mortality, anti-feedant effect or growth inhibition) at 200 ppm in assay [1] is no less than 80%. Moreover, the percent effect (mortality or growth inhibition) at 200 ppm in assay [2] and in assay [3] was no less than 80% in each case.
With `Fc1ccccc1-n1nc(-c2ccc(Cl)cc2)nc1CN1CCC(c2ncccc2Cl)CC1` [Example 1.126], in assay [1], the percent control (mortality, anti-feedant effect or growth inhibition) at 200 ppm is no less than 80%. For the same compound, the percent effect (mortality or growth inhibition) at 200 ppm in assay [2] and in assay [3] was no less than 80% each time.
For the compound `Fc1ccccc1-n1nc(-c2ccc(Cl)cc2)nc1CN1CCC(c2ncccn2)C1` (centres unmarked) [Example 5.7], the percent effect (mortality or growth inhibition) at 200 ppm in assay [2] and in assay [3] was no less than 80% in each case.
Regarding `COC[C@@H]1CCCN1Cc1nc(-c2ccc(Cl)cc2)nn1-c1ccccc1F` [Example 5.28], the percent control (mortality, anti-feedant effect or growth inhibition) at 200 ppm in assay [1] was no less than 80%. The percent effect (mortality or growth inhibition) at 200 ppm in assay [2] and in assay [3] was no less than 80% throughout.
